# [ ]: non-standard residue; d: D form.
# How the values were obtained:
# [1] = system: bFGF-induced angiogenesis; experiment: CAM assay, growth factor-induced angiogenesis, intravenous application; assay type: in vivo, chick; settings: for inhibition of bFGF-induced angiogenesis (branch points): intravenous 18 hours after bFGF induction, FIG. 12
# Procedure: J. Pathol., 79:597 (1975). CAMs were prepared from chick embryos for subsequent induction of angiogenesis and inhibition thereof as described in Examples 4 and 5, respectively. Ten day old chick embryos were obtained from McIntyre Poultry (Lakeside, Calif.) and incubated at 37° C. with 60% humidity. A small hole was made through the shell at the end of the egg directly over the air sac with the use of a small crafts drill (Dremel, Division of Emerson Electric Co. Racine Wis.). A second hole was drilled on the broad side of the egg in a region devoid of embryonic blood vessels determined previously by candling the egg. […] A 1.0 centimeter (cm)×1.0 cm square window was cut through the shell over the dropped CAM with the use of a small model grinding wheel (Dremel). The small window allowed direct access to the underlying CAM.
# Angiogenesis was induced by placing a 5 millimeter (mm)×5 mm Whatman filter disk (Whatman Filter paper No.1) saturated with Hanks Balanced Salt Solution (HBSS, GIBCO, Grand Island, N.Y.) or HBSS containing 150 nanograms/milliliter (ng/ml) recombinant basic fibroblast growth factor (bFGF) (Genzyme, Cambridge, Mass.) on the CAM of a 10-day chick embryo in a region devoid of blood vessels and the windows were latter sealed with tape. In other assays, 125 ng/ml bFGF was also effective at inducing blood vessel growth. For assays where inhibition of angiogenesis ws evaluated with intravenous injections of antagonists, angiogenesis was first induced with 1-2 μg/ml bFGF in fibroblast growth medium. Angiogenesis was monitored by photomicroscopy after 72 hours. CAMs were snap frozen, and 6 um cryostat sections were fixed with acetone and stained by immunofluorescence as described in Example 3C with 10 μg/ml of either anti-β1 monoclonal antibody CSAT or LM609.
# For CAM preparations in which angiogenesis was induced with 1-2 μg/ml bFGF as previously described, synthetic peptides 69601 (control) and 66203 (SEQ ID NO: 5) were separately intravenously injected into CAM preparations 18 hours after bFGF induction of angiogenesis. The preparations were maintained for an additional 36-40 hours after which time the number of branch points were determined as previously described.
# In other assays, peptide 85189 (SEQ ID NO: 15) was evaluated for inhibiting bFGF-induced angiogenesis in the CAM assay over a dosage range of 10 μg/embryo to 300 μg/embryo. The assay was performed as previously described.
# In still further assays, peptide 85189 was compared to peptides 69601 and 66203 for anti-angiogenesis activity. The assay was performed as described above with the exception that 50 μg peptide were used.
# The effectiveness of the different salt formulations of peptide 85189 was also evaluated in similar bFGF-induced CAM assays. The peptides were used at 100 μg/embryo. […] Untreated CAMs, labeled as “no cytokine” had approximately […] as many branch points as that seen with bFGF treatment, respectively 70 versus 190.
# With the above-described protocol, the effect of MMP-2 fusion proteins, CTMMP-2(2-4), also referred to as CTMMP-2(445-467) and CTMMP-2(10-1), also referred to as CTMMP-2(274-637) was also evaluated. The assay was performed as previously described with the exception that 50 μg of fusion protein was administered to the bFGF-treated embryos. The effect of fusion protein treatment was assessed at 24 hours, 48 hours and 72 hours.
# The 10 day old CAM preparation was used as previously described in Example 5A. Twenty-four hours after bFGF-induced angiogenesis was initiated, the organic peptidomimetics referred to as compounds 16 (81218), 17 (87292) and 18 (87293) were separately intravenously injected into the CAM preparation in a volume of 100 μl at a concentration of 1 mg/ml (100 μg/embryo) in 20% tetraglycol-PBS at pH 7.0. In parallel assays, compounds 7 (96112), 9 (99799), 10 (96229), 12 (112854) and 14 (96113) were similarly evaluated. […]
# [2] = system: human M21-L melanoma tumor; experiment: Tumor regression in the CAM assay, M21-L; assay type: in vivo, chick
# Procedure: As described in Example 5, in addition to visually assessing the effect of anti-αvβ3 antagonists on growth factor or tumor induced angiogenesis, the effect of the antagonists was also assessed by measuring any changes to the tumor mass following exposure. For this analysis, the tumor-induced angiogenesis CAM assay system was prepared as described in Example 4C. At the end of the 7 day incubation period, the resulting tumors were resected from the CAMs and trimmed free of any residual CAM tissue, washed with 1 ml of phosphate buffer saline and wet weights were determined for each tumor.
# To further assess the effects of αvβ3 antagonists on tumor growth and survival, fragments of human melanoma and fragments of carcinomas of the lung, pancreas, and larynx were placed on CAMS of 10-day old embryos as described in Example 3A.
# Human M21-L melanoma tumor fragments (50 mg) were implanted on the CAMs of 10 day old embryos as described in Example 3A and 3C. Twenty four hours later, embryos received a single intravenous injection of 300 μg/100 μl of either the cyclo-RADfV (69601) and or cyclo-RGDfV (66203). After a total of 72 hours, tumors were removed, examined morphologically, and photographed with a stereo microscope.
# Additional tumor regression assays were performed with the αvβ3-reactive peptide 85189 (SEQ ID NO: 15) against 69601 as a control. […]
# [3] = target: T1, immobilized αvβ3 receptor (Homo sapiens, UniProt P05106+P06756); experiment: Ligand receptor binding assay with ELISA detection
# T1 construct: selected purified integrins were separately immobilized in Titertek microtiter wells
# Procedure: In addition, the ability of peptides to inhibit the binding of either MMP-2 or VN to immobilized αvβ3 was assessed with peptides 69601 (SEQ ID NO: 6) and 66203 (SEQ ID NO: 5).
# T1 sequence (P06756 31-889 limits assumed): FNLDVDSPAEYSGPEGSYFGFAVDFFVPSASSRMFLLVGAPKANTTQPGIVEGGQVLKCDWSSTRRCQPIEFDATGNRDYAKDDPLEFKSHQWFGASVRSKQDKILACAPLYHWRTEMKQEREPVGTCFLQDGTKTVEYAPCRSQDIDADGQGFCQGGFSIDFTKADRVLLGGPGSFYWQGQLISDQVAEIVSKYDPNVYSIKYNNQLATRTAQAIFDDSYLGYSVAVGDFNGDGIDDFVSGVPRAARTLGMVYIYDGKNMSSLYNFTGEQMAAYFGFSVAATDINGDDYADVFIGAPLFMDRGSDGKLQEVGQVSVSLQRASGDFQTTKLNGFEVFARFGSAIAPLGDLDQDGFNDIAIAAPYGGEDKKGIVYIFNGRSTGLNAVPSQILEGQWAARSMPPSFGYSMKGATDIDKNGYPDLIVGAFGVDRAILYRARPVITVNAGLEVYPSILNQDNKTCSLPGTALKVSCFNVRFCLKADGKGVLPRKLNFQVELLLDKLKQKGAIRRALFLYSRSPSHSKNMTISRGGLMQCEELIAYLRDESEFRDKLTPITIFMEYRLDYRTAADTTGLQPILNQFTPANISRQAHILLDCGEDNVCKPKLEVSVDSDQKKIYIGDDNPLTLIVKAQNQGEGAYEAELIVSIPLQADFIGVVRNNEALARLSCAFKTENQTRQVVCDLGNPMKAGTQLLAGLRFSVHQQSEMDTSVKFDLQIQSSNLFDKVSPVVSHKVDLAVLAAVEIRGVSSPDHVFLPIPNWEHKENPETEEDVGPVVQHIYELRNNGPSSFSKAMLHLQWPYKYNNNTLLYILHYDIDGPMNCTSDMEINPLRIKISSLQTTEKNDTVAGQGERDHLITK
# T1 sequence (P06756 891-1048 partner limits assumed): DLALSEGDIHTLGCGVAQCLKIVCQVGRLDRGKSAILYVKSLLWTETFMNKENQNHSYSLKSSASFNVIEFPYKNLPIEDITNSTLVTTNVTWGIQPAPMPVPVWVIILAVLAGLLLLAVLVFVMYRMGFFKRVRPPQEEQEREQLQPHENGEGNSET
# T1 sequence (P05106 27-788): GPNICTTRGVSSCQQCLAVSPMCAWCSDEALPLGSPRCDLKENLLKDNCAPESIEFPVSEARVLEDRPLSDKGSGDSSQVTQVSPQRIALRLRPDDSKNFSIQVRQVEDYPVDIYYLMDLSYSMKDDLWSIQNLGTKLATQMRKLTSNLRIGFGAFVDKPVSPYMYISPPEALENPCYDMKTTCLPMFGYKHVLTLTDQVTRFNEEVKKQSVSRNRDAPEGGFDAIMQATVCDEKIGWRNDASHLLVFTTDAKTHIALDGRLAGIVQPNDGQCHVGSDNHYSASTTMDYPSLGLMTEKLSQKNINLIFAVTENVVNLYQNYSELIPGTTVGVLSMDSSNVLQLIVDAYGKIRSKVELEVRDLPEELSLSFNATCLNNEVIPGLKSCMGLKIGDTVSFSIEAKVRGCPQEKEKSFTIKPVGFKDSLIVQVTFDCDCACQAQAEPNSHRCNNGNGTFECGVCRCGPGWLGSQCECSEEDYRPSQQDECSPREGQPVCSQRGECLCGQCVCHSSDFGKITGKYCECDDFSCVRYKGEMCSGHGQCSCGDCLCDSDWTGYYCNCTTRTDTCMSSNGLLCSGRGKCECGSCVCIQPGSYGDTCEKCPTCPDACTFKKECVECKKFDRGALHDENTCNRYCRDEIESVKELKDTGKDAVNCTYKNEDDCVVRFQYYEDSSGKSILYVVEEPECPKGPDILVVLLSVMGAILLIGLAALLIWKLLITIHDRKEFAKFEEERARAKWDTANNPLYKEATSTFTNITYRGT
substance,measurement,setting,value
"cyclo (RADfV) (cyclo(RAD[dF]V); SMILES CC(C)[C@@H]1NC(=O)[C@@H](Cc2ccccc2)NC(=O)[C@H](CC(=O)O)NC(=O)[C@H](C)NC(=O)[C@H](CCCNC(=N)N)NC1=O) [Peptide 69601, reference compound]","inhibition of bFGF-induced angiogenesis, salt formulations",[1]; 100 μg/embryo,no effect on inhibiting angiogenesis
same,number of branch points,"[1]; 100 μg/embryo, bFGF alone 190, no cytokine 70",230 branch points
same,inhibition of bFGF-induced angiogenesis (branch points),[1],absence of inhibition
same,"effect on tumor weight, M21-L","[2]; 100 μg intravenously 18 hours post-implantation, FIG. 16",lack of effect
same,inhibition of binding of MMP-2 or VN to immobilized αvβ3,[3],failed to have an effect with either ligand
cyclo (RGDfV) [Peptide 66203],inhibition of bFGF-mediated angiogenesis,"[1]; 50 μg peptide, FIG. 14",effective inhibitors of bFGF-mediated angiogenesis
same,"inhibiting angiogenesis, HCl versus TFA peptide",[1]; assays of Example 5,slightly more effective
same,inhibition of bFGF-induced angiogenesis (branch points),[1],completely inhibited
same,inhibition of vessel formation in tumor,"[2]; single intravenous injection of 300 μg/100 μl, 72 hours",inhibited vessel formation
same,inhibition of binding of MMP-2 or VN to immobilized αvβ3,[3],effective at inhibiting the binding of either substrate

# — patent US20040063790A1, “Methods for inhibition of angiogenesis” (The Scripps Research Institute, priority 1996, published 2004)
